According to patent US4255183A, “Substituted phenyl urea and herbicides for use in paddy field” (Hokko Chemical Industry Co., Ltd., priority 1977, dated 1981):

Experiments:
[1] = tested on: Echinochloa crus-galli var. oryzicola; assay: Test Example 2: concrete pot test on killing effect, Echinochloa crus-galli var. oryzicola; type: in vivo; conditions: granule, 30 days after treatment
Protocol: (§1) In a Wagner pot of 1/500 are, paddy field soil (alluvial soil) was placed and 50 seeds of Echinochloa crus-galli var. oryzicola and 30 seeds of paddy rice were seeded in the surface layer of said soil and the submerging depth was kept at about 1 cm. When Echinochloa crus-galli var. oryzicola reached at the one leaf stage and 5-leaf stage, the emulsion of a predetermined concentration, prepared according to Example 4 was added dropwise. After 30 days from the treatment with the chemical, dry weights of Echinochloa crus-galli var. oryzicola and paddy rice were measured and the inhibition rate was calculated with reference to untreated area. [formula]
(§2) In a concrete pot of 1/400 are (50 cm×50 cm), paddy field soil (alluvial soil) was placed and 200 seeds of Echinochloa crus-galli var. oryzicola were seeded in 10 surface layer of said soil and the soil was submerged at about 3 cm depth. Before emergence of Echinochloa crus-galli var. oryzicola, paddy rice at 2.5-leaf stage (Asahi species) was transplanted at the rate of 8 stubs per pot, planting 3 seedlings per stub. At the one-leaf stage (3.5 leaves stage of paddy rice) and 5 leaves stage (7 leaves stage of paddy rice) of Echinochloa crus-galli var. oryzicola, the granule prepared according to Example 1 was applied. […] 30 Days after the treatment with the chemical, examination was made in the similar manner as Test Example 1 to obtain results as shown in Table 2.
(§3) In the table, as the comparative chemicals CPN, Benthiocarb, Molinate and Simetryne, those commercially available were used and the comparative chemicals A and B (as mentioned before) used were prepared according to the process for preparing the compound of this invention.

paddy rice [2] = assay: Test Example 1: pot test on selectivity, inhibition of paddy rice; type: in vivo; conditions: dry weight 30 days after treatment
Protocol: as §1, with “When Echinochloa crus-galli var. oryzicola reached at the one leaf stage and 5-leaf stage, the emulsion of a predetermined concentration, prepared according to Example 4 was added dropwise.” left out
(§4) The comparative chemicals used, i.e. DCMU and Linuron, were those commercially available, and the comparative chemicals A and B used were prepared according to the process for formulating the compound of this invention.

paddy rice [3] = assay: whole plant or invertebrate; type: in vivo, paddy rice (Asahi species); conditions: granule, 30 days; for Inhibition (%) by treatment at 1-leaf stage of E. crus-galli var. oryzicola, paddy rice: rice at 3.5 leaves stage; for Inhibition (%) by treatment at 5-leaf stage of E. crus-galli var. oryzicola, paddy rice: rice at 7 leaves stage
Protocol: as §1, §2, §3

[4] = tested on: Echinochloa crus-galli var. oryzicola; assay: Test Example 1: pot test on selectivity, inhibition of Echinochloa crus-galli var. oryzicola; type: in vivo; conditions: dry weight 30 days after treatment
Protocol: as §1, §4

SMILES | Inhibition (%) by treatment at 1-leaf stage of E. crus-galli var. oryzicola, E. crus-galli var. oryzicola ([1]; 100 g/10 are) [%] | Inhibition (%) by treatment at 5-leaf stage of E. crus-galli var. oryzicola, E. crus-galli var. oryzicola ([1]; 100 g/10 are) [%] | Inhibition (%) by treatment at 1-leaf stage of E. crus-galli var. oryzicola, E. crus-galli var. oryzicola ([1]; 300 g/10 are) [%] | Inhibition (%) by treatment at 5-leaf stage of E. crus-galli var. oryzicola, E. crus-galli var. oryzicola ([1]; 300 g/10 are) [%] | Inhibition (%) by treatment at 1-leaf stage of E. crus-galli var. oryzicola, E. crus-galli var. oryzicola ([1]; 900 g/10 are) [%] | Inhibition (%) by treatment at 5-leaf stage of E. crus-galli var. oryzicola, E. crus-galli var. oryzicola ([1]; 900 g/10 are) [%] | Inhibition (%) by treatment at 1-leaf stage, paddy rice (paddy rice [2]; 75 g/10 are) [%] | Inhibition (%) by treatment at 5-leaf stage, paddy rice (paddy rice [2]; 75 g/10 are) [%] | Inhibition (%) by treatment at 1-leaf stage, paddy rice (paddy rice [2]; 150 g/10 are) [%] | Inhibition (%) by treatment at 5-leaf stage, paddy rice (paddy rice [2]; 150 g/10 are) [%] | Inhibition (%) by treatment at 1-leaf stage, paddy rice (paddy rice [2]; 300 g/10 are) [%] | Inhibition (%) by treatment at 5-leaf stage, paddy rice (paddy rice [2]; 300 g/10 are) [%] | Inhibition (%) by treatment at 1-leaf stage, paddy rice (paddy rice [2]; 600 g/10 are) [%] | Inhibition (%) by treatment at 5-leaf stage, paddy rice (paddy rice [2]; 600 g/10 are) [%] | Inhibition (%) by treatment at 1-leaf stage, paddy rice (paddy rice [2]; 900 g/10 are) [%] | Inhibition (%) by treatment at 5-leaf stage, paddy rice (paddy rice [2]; 900 g/10 are) [%] | Inhibition (%) by treatment at 1-leaf stage of E. crus-galli var. oryzicola, paddy rice (paddy rice [3]; 100 g/10 are) [%] | Inhibition (%) by treatment at 5-leaf stage of E. crus-galli var. oryzicola, paddy rice (paddy rice [3]; 100 g/10 are) [%] | Inhibition (%) by treatment at 1-leaf stage of E. crus-galli var. oryzicola, paddy rice (paddy rice [3]; 300 g/10 are) [%] | Inhibition (%) by treatment at 5-leaf stage of E. crus-galli var. oryzicola, paddy rice (paddy rice [3]; 300 g/10 are) [%] | further results
CC(Cl)=CCOc1ccc(NC(=O)N(C)C)cc1 [Comparative chemical A] | 100 | 48 | 100 | 72 | 100 | 98 | 0 | 0 | 0 | 0 | 0 | 0 | 15 | 0 | 35 | 12 | 0 | 0 | 0 | 0 | Inhibition (%) by treatment at 1-leaf stage of E. crus-galli var. oryzicola, paddy rice (paddy rice [3]; 900 g/10 are): 23%; Inhibition (%) by treatment at 5-leaf stage of E. crus-galli var. oryzicola, paddy rice (paddy rice [3]; 900 g/10 are): 5%; Inhibition (%) by treatment at 1-leaf stage, E. crus-galli var. oryzicola ([4]; 75 g/10 are): 87%; Inhibition (%) by treatment at 5-leaf stage, E. crus-galli var. oryzicola ([4]; 75 g/10 are): 37%; Inhibition (%) by treatment at 1-leaf stage, E. crus-galli var. oryzicola ([4]; 150 g/10 are): 100%; Inhibition (%) by treatment at 5-leaf stage, E. crus-galli var. oryzicola ([4]; 150 g/10 are): 67%; Inhibition (%) by treatment at 1-leaf stage, E. crus-galli var. oryzicola ([4]; 300 g/10 are): 100%; Inhibition (%) by treatment at 5-leaf stage, E. crus-galli var. oryzicola ([4]; 300 g/10 are): 82%; Inhibition (%) by treatment at 1-leaf stage, E. crus-galli var. oryzicola ([4]; 600 g/10 are): 100%; Inhibition (%) by treatment at 5-leaf stage, E. crus-galli var. oryzicola ([4]; 600 g/10 are): 95%; Inhibition (%) by treatment at 1-leaf stage, E. crus-galli var. oryzicola ([4]; 900 g/10 are): 100%; Inhibition (%) by treatment at 5-leaf stage, E. crus-galli var. oryzicola ([4]; 900 g/10 are): 100%
CNC(=O)Nc1ccc(OCC=C(C)Cl)cc1 [Comparative chemical B] | 20 | 0 | 75 | 0 | 100 | 30 | 0 | 0 | 0 | 0 | 36 | 0 | 60 | 7 | 72 | 26 | 0 | 0 | 0 | 0 | Inhibition (%) by treatment at 1-leaf stage of E. crus-galli var. oryzicola, paddy rice (paddy rice [3]; 900 g/10 are): 40%; Inhibition (%) by treatment at 5-leaf stage of E. crus-galli var. oryzicola, paddy rice (paddy rice [3]; 900 g/10 are): 7%; Inhibition (%) by treatment at 1-leaf stage, E. crus-galli var. oryzicola ([4]; 75 g/10 are): 10%; Inhibition (%) by treatment at 5-leaf stage, E. crus-galli var. oryzicola ([4]; 75 g/10 are): 0%; Inhibition (%) by treatment at 1-leaf stage, E. crus-galli var. oryzicola ([4]; 150 g/10 are): 35%; Inhibition (%) by treatment at 5-leaf stage, E. crus-galli var. oryzicola ([4]; 150 g/10 are): 0%; Inhibition (%) by treatment at 1-leaf stage, E. crus-galli var. oryzicola ([4]; 300 g/10 are): 80%; Inhibition (%) by treatment at 5-leaf stage, E. crus-galli var. oryzicola ([4]; 300 g/10 are): 7%; Inhibition (%) by treatment at 1-leaf stage, E. crus-galli var. oryzicola ([4]; 600 g/10 are): 100%; Inhibition (%) by treatment at 5-leaf stage, E. crus-galli var. oryzicola ([4]; 600 g/10 are): 12%; Inhibition (%) by treatment at 1-leaf stage, E. crus-galli var. oryzicola ([4]; 900 g/10 are): 100%; Inhibition (%) by treatment at 5-leaf stage, E. crus-galli var. oryzicola ([4]; 900 g/10 are): 36%
